Like-named read-outs stand apart in the source and are kept apart here.
How the values were obtained:
human TrkA = human TrkA (Homo sapiens (Human), UniProt P04629); test: Human TrkA inhibition assay (Test Example 2); format: biochemical
Summary of the method: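 Mobility-shift readout of phosphorylated versus unphosphorylated fluorescent peptide gave conversion ratio, normalized to DMSO and no-enzyme wells; IC50 by logistic fit of 10- or 15-point 3-fold dilutions. Conditions: 1 nmol/L enzyme, 15 min compound preincubation, then 500 μmol/L ATP plus 1.5 μmol/L peptide, 120 min, 37 °C.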

hERG channel (IKr) = hERG channel (IKr) (Homo sapiens (Human), UniProt Q12809); test: hERG test, whole cell patch clamp IKr in CHO cells (Test Example 3); format: cell-based; conditions: pH 7.4, at of test compound (so in the source), CHO cells expressing hERG channel, read-out: % inhibition of tail peak current (IKr)
hERG channel (IKr), sequence (Q12809 whole entry): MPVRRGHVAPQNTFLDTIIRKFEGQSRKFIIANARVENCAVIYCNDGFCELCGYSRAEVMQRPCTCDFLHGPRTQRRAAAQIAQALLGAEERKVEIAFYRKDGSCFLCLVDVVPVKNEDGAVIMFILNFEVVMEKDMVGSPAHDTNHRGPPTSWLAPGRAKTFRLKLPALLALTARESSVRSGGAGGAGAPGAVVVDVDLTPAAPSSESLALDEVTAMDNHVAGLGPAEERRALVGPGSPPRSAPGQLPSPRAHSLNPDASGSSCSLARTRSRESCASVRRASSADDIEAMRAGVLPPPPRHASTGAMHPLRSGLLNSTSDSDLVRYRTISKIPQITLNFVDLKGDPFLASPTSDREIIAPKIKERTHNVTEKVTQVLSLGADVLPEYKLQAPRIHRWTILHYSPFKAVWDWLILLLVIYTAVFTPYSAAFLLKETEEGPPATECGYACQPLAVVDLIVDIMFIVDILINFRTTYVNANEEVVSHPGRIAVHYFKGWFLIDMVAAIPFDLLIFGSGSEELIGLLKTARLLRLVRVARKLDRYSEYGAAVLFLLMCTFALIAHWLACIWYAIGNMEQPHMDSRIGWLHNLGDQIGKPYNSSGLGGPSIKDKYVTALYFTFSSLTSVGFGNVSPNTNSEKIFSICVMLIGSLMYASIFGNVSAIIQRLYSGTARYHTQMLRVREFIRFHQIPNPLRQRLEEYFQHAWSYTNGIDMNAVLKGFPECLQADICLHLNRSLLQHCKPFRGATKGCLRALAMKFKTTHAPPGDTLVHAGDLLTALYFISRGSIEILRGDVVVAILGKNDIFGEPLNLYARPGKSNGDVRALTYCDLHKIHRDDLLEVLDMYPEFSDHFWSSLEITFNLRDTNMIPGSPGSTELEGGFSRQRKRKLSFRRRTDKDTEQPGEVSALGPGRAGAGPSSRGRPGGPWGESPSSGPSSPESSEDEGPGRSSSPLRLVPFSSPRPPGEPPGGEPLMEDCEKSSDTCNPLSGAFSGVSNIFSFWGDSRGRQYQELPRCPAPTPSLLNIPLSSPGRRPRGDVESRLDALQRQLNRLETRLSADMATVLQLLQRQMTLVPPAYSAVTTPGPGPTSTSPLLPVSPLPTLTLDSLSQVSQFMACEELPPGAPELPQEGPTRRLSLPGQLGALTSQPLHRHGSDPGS
Excerpt: For the purpose of assessing risk of an electrocardiogram QT interval prolongation of the compound of the present invention, effects of the compound of the present invention on delayed rectifier K^+ current (IKr), which plays an important role in the ventricular repolarization process, was studied using CHO cells expressing human ether-a-go-go related gene (hERG) channel.
After a cell was retained at a membrane potential of −80 mV by whole cell patch clamp method using an automated patch clamp system (QPatch; Sophion Bioscience A/S) and gave a leak potential of −50 mV, IKr induced by depolarization pulse stimulation at +20 mV for 2 seconds, and further, repolarization pulse stimulation at −50 mV for 2 seconds, was recorded. A vehicle, which is the 0.1-0.3% dimethyle sulfoxide solution in extracellular solution (NaCl: 145 mmol/L, KCl: 4 mmol/L, CaCl2: 2 mmol/L, MgCl2: 1 mmol/L, glucose: 10 mmol/L, HEPES (4-(2-hydroxyethyl)-1-piperazineethanesulfonic acid): 10 mmol/L, pH7.4), or the compound of the present invention had been dissolved at an objective concentration in the extracellular solution is applied to the cell at room temperature for 7 minutes or more. From the recording IKr, an absolute value of the tail peak current was measured based on the current value at the resting membrane potential using analysis software (QPatch assay software; Sophion Bioscience A/S). Further, the % inhibition of tail peak current for the compound of the present invention relative to the tail peak current after application of the vehicle is calculated to assess influence of the compound of the present invention on IKr.
(Result) % inhibition was shown at […] of test compound.

[1] = Clearance test, intravenous administration in SD rats (Test Example 7); format: in vivo; conditions: rat, plasma, intravenous administration 0.5 mg/kg or 1 μmol/kg, read-out: Total Clearance (CLtot)
Method: Materials and Methods for Experiments • (1) Experimental animals: SD rats were used. • (2) Rearing condition: SD rats were allowed free access to solid feed and sterilized tap water. • (3) Setting of dosage and grouping: Intravenous administration was performed with the predetermined dosage. Grouping was set as below. (Dosage is changed per compound) Intravenous administration 0.5 mg/kg or 1 μmol/kg (n=2) • (4) Preparation of administration solutions: Administration was performed after solubilization by using dimethylacetamide/propylene glycol=1/1 or dimethyl sulfoxide/propylene glycol=1/1 as the solvent. • (5) Routes of administration: Intravenous administration was performed from caudal vein by syringes with needle. • (6) Evaluation items: Blood was collected serially and concentration of a compound of the present invention in plasma was measured by LC/MS/MS. • (7) Statistical analysis: About transition of concentration of a compound of the present invention in plasma, Total Clearance (CLtot) of a compound of the present invention was calculated by non-linear least-squares method program, WinNonlin (a registered trademark).

[2] = Table 152, human TrkA inhibition, read-out: IC50_nM

human TrkA, sequence (P04629 440-796): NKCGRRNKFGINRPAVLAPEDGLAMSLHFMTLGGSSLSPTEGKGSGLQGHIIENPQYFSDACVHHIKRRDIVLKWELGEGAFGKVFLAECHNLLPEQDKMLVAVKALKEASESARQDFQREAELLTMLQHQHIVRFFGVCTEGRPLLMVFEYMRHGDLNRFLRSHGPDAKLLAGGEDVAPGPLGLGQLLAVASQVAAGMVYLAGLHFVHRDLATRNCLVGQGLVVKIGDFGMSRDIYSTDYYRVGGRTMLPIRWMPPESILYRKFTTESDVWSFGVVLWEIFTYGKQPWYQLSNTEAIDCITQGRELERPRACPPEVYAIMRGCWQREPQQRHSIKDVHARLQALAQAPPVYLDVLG

| IC50 (human TrkA; [2]) [nM] | IC50 (human TrkA; human TrkA 1 nmol/L, ATP 500 μmol/L, 120 min at 37° C., read-out: IC50 values (TrkA phosphorylation inhibition)) [nM] | clearance [1] [mL/min/kg] | SMILES | inhibition at 5 mol/L (hERG channel (IKr)) [%] |
| --- | --- | --- | --- | --- |
| < 100 |  |  | COCCN1C[C@@H](NC(=O)Nc2c(C)c(-c3cnn(C)c3)nn2-c2ccccc2)[C@H](c2ccccc2)O1 (racemic) [Compound I-4] | 14.1 |
| < 100 |  |  | COCCC1C[C@@H](NC(=O)Nc2c(C)c(-c3cnn(C)c3)nn2-c2ccccc2)[C@H](c2ccccc2)O1 (stereo partly drawn) [Compound I-6] | 8.9 |
|  | 6.1 |  | COCC[C@@H]1O[C@@H](NC(=O)Nc2c(C)c(-c3cnn(C)c3)nn2-c2ccccc2)[C@H](c2ccccc2)O1 [Compound I-7] | 4.2 |
| < 100 |  | 13.6 | COCCC1C[C@@H](NC(=O)Nc2c(C)c(-c3cnc(C)nc3)nn2-c2ccccc2)[C@H](c2ccccc2)O1 (stereo partly drawn) [Compound I-12] | 17.6 |
